Test results from ChEMBL document CHEMBL6127008, “Discovery and biological evaluation of biaryl acetamide derivatives as selective and in vivo active sphingosine kinase-2 inhibitors” (Eur J Med Chem, 2024).
Converted amounts (≈) assume the structure as drawn. The source made the active and inactive calls. No cut-off for these calls is given here.

How the values were obtained:
[1] = target: T1, Sphingosine kinase 2 (Homo sapiens, UniProt Q9NRA0); assay: Inhibition of SphK2 (unknown origin) using sphingosine as substrate incubated for 30 mins in presence of ATP by ADP-Glo assay
T1 sequence (Q9NRA0 whole entry): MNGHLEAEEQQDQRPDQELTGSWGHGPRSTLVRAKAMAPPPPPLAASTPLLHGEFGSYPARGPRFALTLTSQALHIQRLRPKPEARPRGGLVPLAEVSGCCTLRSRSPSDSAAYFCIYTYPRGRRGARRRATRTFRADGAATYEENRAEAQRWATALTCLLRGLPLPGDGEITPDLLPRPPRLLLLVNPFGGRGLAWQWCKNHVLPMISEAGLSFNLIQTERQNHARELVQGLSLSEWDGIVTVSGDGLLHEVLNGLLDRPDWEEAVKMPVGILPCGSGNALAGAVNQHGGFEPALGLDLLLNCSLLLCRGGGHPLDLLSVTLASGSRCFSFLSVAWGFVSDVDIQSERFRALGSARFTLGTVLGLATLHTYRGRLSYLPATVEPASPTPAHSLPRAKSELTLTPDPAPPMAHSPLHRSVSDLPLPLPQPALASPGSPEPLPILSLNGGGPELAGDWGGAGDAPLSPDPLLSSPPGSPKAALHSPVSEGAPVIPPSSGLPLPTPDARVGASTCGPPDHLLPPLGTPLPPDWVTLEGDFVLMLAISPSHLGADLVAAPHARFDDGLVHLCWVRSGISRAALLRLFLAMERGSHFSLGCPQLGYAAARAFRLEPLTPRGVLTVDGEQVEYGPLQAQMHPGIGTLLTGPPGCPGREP

[2] = tested on: Hepa 1-6; assay: cells; conditions: Mus musculus, Hepa1-6, 48 h
[3] = tested on: MCF7; assay: cells; conditions: Homo sapiens, MCF7, 48 h
[4] = tested on: MC-38; assay: cells; conditions: Mus musculus, MC-38, 48 h
[5] = tested on: HepG2; assay: cells; conditions: Homo sapiens, HepG2, 48 h
[6] = Cytotoxicity against mouse NIH3T3 cells assessed as reduction in cell proliferation incubated for 48 hrs by CCK-8 assay; type: toxicity, cell-based
[7] = target: T1, Sphingosine kinase 2; assay: Inhibition of SphK2 (unknown origin)
[8] = tested on: HepG2; assay: Downregulation of SIP level in human HepG2 cells incubated for 48 hrs by SIP competitive ELISA method; type: functional, cell-based; conditions: dose 0-60 µM
[9] = Aqueous solubility of compound in phosphate buffer at pH 2.0 by HPLC analysis; type: physicochemical
[10] = Aqueous solubility of compound in phosphate buffer at pH 7.4 by HPLC analysis; type: physicochemical
[11] = tested on: HepG2; assay: Upregulation od SPH level in human HepG2 cell incubated for 48 hrs by SPH competitive ELISA method; type: functional, cell-based; conditions: dose 0-60 µM
[12] = Aqueous solubility of compound in phosphate buffer at pH 9.0 by HPLC analysis; type: physicochemical
[13] = target: Sphingosine kinase 1 (Homo sapiens, UniProt Q9NYA1); assay: Inhibition of SphK1 (unknown origin)
[14] = tested on: HepG2; assay: Induction of apoptosis in human HepG2 cells assessed as early apoptotic cells at 5 uM incubated for 48 hrs by Annexin V/FITC-PI staining based flow cytometry (reference value: 1.98%); type: functional
[15] = tested on: HepG2; assay: Induction of apoptosis in human HepG2 cells assessed as necrotic cells at 5 uM incubated for 48 hrs by Annexin V/FITC-PI staining based flow cytometry (reference value: […]); type: functional
[16] = tested on: HepG2; assay: Inhibition of cell migration in human HepG2 cells assessed as scratch healing incubated for 24 to 48 hrs by wound healing assay; type: functional, cell-based; conditions: dose 10-30 µM, time lower 24.0 hrs, time upper […]
[17] = tested on: HepG2; assay: Induction of cell cycle arrest in human HepG2 cells assessed as accumulation of cell at G2 phase at 0 to 50 uM incubated for 48 hrs by PI staining based flow cytometric analysis; type: functional; conditions: dose 0-50 µM
[18] = tested on: HepG2; assay: Induction of apoptosis in human HepG2 cells assessed as viable cells at 5 uM incubated for 48 hrs by Annexin V/FITC-PI staining based flow cytometry (reference value: 91.15%); type: functional; conditions: read-out: Activity
[19] = tested on: HepG2; assay: Induction of apoptosis in human HepG2 cells assessed as late apoptotic cells at 5 uM incubated for 48 hrs by Annexin V/FITC-PI staining based flow cytometry (reference value: 3.32%); type: functional
[20] = tested on: HepG2; assay: Induction of apoptosis in human HepG2 cells assessed as early apoptotic cells at 50 uM incubated for 48 hrs by Annexin V/FITC-PI staining based flow cytometry (reference value: 1.98%); type: functional
[21] = tested on: HepG2; assay: Induction of apoptosis in human HepG2 cells assessed as viable cells at 20 uM incubated for 48 hrs by Annexin V/FITC-PI staining based flow cytometry (reference value: 91.15%); type: functional; conditions: read-out: Activity
[22] = tested on: HepG2; assay: Induction of apoptosis in human HepG2 cells assessed as necrotic cells at 20 uM incubated for 48 hrs by Annexin V/FITC-PI staining based flow cytometry (reference value: […]); type: functional
[23] = tested on: HepG2; assay: Induction of apoptosis in human HepG2 cells assessed as early apoptotic cells at 20 uM incubated for 48 hrs by Annexin V/FITC-PI staining based flow cytometry (reference value: 1.98%); type: functional
[24] = tested on: HepG2; assay: Induction of apoptosis in human HepG2 cells assessed as late apoptotic cells at 20 uM incubated for 48 hrs by Annexin V/FITC-PI staining based flow cytometry (reference value: 3.32%); type: functional
[25] = tested on: HepG2; assay: Induction of apoptosis in human HepG2 cells assessed as viable cells at 50 uM incubated for 48 hrs by Annexin V/FITC-PI staining based flow cytometry (reference value: 91.15%); type: functional; conditions: read-out: Activity
[26] = tested on: HepG2; assay: Induction of apoptosis in human HepG2 cells assessed as necrotic cells at 50 uM incubated for 48 hrs by Annexin V/FITC-PI staining based flow cytometry (reference value: […]); type: functional
[27] = tested on: HepG2; assay: Induction of apoptosis in human HepG2 cells assessed as late apoptotic cells at 50 uM incubated for 48 hrs by Annexin V/FITC-PI staining based flow cytometry (reference value: 3.32%); type: functional
[28] = tested on: Mus musculus; assay: In vivo inhibition SphK2 in female C57BL/6j mouse assessed as decrease in plasma SIP level at 10 to 30 mg/kg, ip measured after 4 hrs by SIP competitive ELISA method; type: functional, organism-based; conditions: dose 10-30 mg/kg

Chain of Sphingosine kinase 1 (Q9NYA1 whole entry): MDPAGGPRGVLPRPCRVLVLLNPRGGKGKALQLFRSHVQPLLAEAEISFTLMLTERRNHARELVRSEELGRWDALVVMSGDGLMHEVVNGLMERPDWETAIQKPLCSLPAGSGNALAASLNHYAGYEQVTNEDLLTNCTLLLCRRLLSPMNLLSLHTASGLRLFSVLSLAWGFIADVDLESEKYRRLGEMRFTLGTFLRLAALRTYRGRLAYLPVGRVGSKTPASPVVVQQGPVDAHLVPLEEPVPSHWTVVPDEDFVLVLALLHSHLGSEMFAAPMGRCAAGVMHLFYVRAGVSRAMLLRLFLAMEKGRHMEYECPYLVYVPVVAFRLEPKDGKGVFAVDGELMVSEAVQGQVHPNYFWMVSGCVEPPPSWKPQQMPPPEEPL

| SMILES | IC50 [2] [µM] | IC50 [3] [µM] | IC50 [4] [µM] | IC50 [5] [µM] | IC50 at 48 h [6] [µM] | further results |
| --- | --- | --- | --- | --- | --- | --- |
| CCCCCOc1ccc2cc(-c3noc([C@@H]4[C@@H](O)CCN4C(=N)N)n3)ccc2c1 | – | – | – | – | – | IC50 [1]: 1.5 µM |
| CS(=O)(=O)c1ccc(-c2sc(NS(=O)(=O)c3ccc(Br)cc3)nc2-c2ccccc2)cc1 | – | – | – | – | – | IC50 [7]: > 10 µM |
| O=C(Cc1ccc(-c2cnc(OCc3ccc(Cl)cc3)cn2)cc1)N1CCC[C@H]1CO | 57.4 | > 100 | > 100 | 46.4 | > 100 | – |
| NC(=O)[C@@H]1CCCN1C(=O)Cc1ccc(-c2ccc(OCc3ccccc3)nc2)cc1 | 66.3 | > 100 | > 100 | > 100 | > 100 | – |
| O=C(Cc1ccc(-c2ccc(OCc3ccc(Cl)cc3)nc2)cc1)N1CCC[C@H]1CO | 49.1 | 53.4 | 57.4 | 27.2 | > 100 | – |
| O=C(Cc1ccc(-c2ccc(OCc3ccc(Cl)c(Cl)c3)nc2)cc1)N1CCC(O)CC1 | 59.2 | 36.3 | 16.4 | > 100 | > 100 | solubility [9]: 11.6 µM (≈ 5.48 µg/mL); solubility [10]: 183 µM (≈ 86.5 µg/mL); solubility [12]: 59.6 µM (≈ 28.1 µg/mL) |
| CCCCCCCCc1ccc(CC[C@](N)(CO)COC)cc1 | – | – | – | – | – | Ki [13]: 50 µM |

Further compounds by falling IC50 [2], results first:

| IC50 [2] [µM] | IC50 [3] [µM] | IC50 [4] [µM] | IC50 [5] [µM] | SMILES | IC50 at 48 h [6] [µM] | further results |
| --- | --- | --- | --- | --- | --- | --- |
| 46.1 | 14.7 | 20.9 | 25.4 | O=C(Cc1ccc(-c2ccc(OCc3ccc(Cl)c(Cl)c3)nc2)cc1)N1CCC[C@H]1CO | > 100 | Activity [8]: Dose-Dependent Effect; Activity [14]: 0.93%; Activity [15]: 6.77%; Activity [16]: Dose-Dependent Effect; solubility [9]: 6.87 µM (≈ 3.24 µg/mL); solubility [10]: 197 µM (≈ 92.6 µg/mL); Activity [17]: Active; viability at 5 µM [18]: 85.7%; Activity [11]: Dose-Dependent Effect; Activity [19]: 6.61%; Activity [20]: 11.1%; viability at 20 µM [21]: 82.9%; Activity [22]: 4.62%; Activity [23]: 1.46%; Activity [24]: 11.01%; viability at 50 µM [25]: 67.6%; solubility [12]: 46.9 µM (≈ 22.1 µg/mL); Activity [26]: 11.19%; Activity [27]: 10.09%; Activity [28]: Active |
| 41.9 | 33.5 | 34.6 | 25.6 | O=C(NCc1ccncc1)C12CC3CC(C1)CC(c1ccc(Cl)cc1)(C3)C2 [ABC-294640] | > 100 | IC50 [1]: 11.4 µM |
| 37.5 | 32.7 | > 100 | 67.9 | NC(=O)[C@@H]1CCCN1C(=O)Cc1ccc(-c2ccc(OCc3ccc(Cl)c(Cl)c3)nc2)cc1 | > 100 | – |
| 27.2 | 25.4 | 40.5 | 34.4 | NC(=O)[C@@H]1CCCN1C(=O)Cc1ccc(-c2ccc(OCc3ccc(Cl)cc3)nc2)cc1 | > 100 | – |
| 26.2 | 32.1 | 36.3 | 17.6 | O=C(Cc1ccc(-c2cnc(OCc3ccc(C(F)(F)F)cc3)cn2)cc1)N1CCC[C@H]1CO | > 100 | Activity [8]: Dose-Dependent Effect; solubility [9]: 38.6 µM (≈ 18.2 µg/mL); solubility [10]: 164 µM (≈ 77.5 µg/mL); Activity [11]: Dose-Dependent Effect; solubility [12]: 60.4 µM (≈ 28.5 µg/mL) |
